Test results: US7589065B2, “Catalysis of the cis/trans-isomerisation of secondary amide peptide compounds” (Max-Planck Gesellschaft zur Forderung der Wissenschaften, …, priority 2001, dated 2009)

Key:
DnaK = DnaK (Escherichia coli, UniProt P0A6Y8); assay: biochemical
Description: (§1) RNAse T1 contains a Ser-Pro sequence with a cis conformation at the sequence site 38/39. […] In detail, the protein is unfolded by suitable additives and the renaturation rate is measured and registered after removal of the additives, e.g. by rapid dilution. As is shown (Scholz et al., Biol. chem. 1998, March; 379(3): 361-5), the exchange of the prolin 39 with an alanine (P39A) leads to a protein mutant whose foldback rate is […] influenced by this peptide bond. Added APIase, dependent on concentration, catalyses the isomerisation of this non-prolyl peptide bond and, thus, the foldback of the P39A mutant.
(§2) […] RNAse T1 P39A was incubated with 5 M guanidinium-Cl and 0.1 M Tris-HCl at pH 8 at 15° C. for 60 min. The foldback at 15° C. was started by a 40-fold dilution of the unfolded protein in foldback buffer (0.1 Tris-HCl, 50 mM KCl, 11 mM MgCl2) at pH 8. The foldback was determined as increase of the protein fluorescence at 320 nm (10 nm width of band) with excitation of 278 nm (1.5 nm width of band) with a Jobin-Yvon-Spex Fluoromax-2 fluorescence spectrometer.

[1] = 2D 1H NMR exchange (NOESY) measurement of cis/trans isomerisation in the pentapeptide; type: biochemical; settings: for relative intensity of the cross signal of the peptide bond Ala-Tyr / relative intensity of the cross signal of the peptide bond Tyr-Ala: 25 mM pentapeptide, pH 7.1, 278° K; for relative intensity of the cross signal of the peptide bond Ala-Tyr: no addition 3.50 ± 0.51; for relative intensity of the cross signal of the peptide bond Tyr-Ala: no addition 3.89 ± 0.32
From the text: A further possibility, only described in 1998, is the determination of the cis/trans isomerisation rate of secondary amide peptide bonds containing aromatic amino acids by means of 2D 1H NMR exchange experiments (Scherer G. et al., 1998, JACS 120:5568-5574). In Example 8, this NMR method is used to determine a catalytic acceleration of the cis/trans isomerisation of the peptide bonds Ala-Tyr and Tyr-Ala within the pentapeptide Ala-Ala-Tyr-Ala-Ala. The acceleration is accomplished by catalytic amounts of DnaK.
NMR Device: Bruker DRX-500, Equipped with z-gradient
• FIG. 8: The alanine methyl region from the two-dimensional exchange 1H-NMR spectrum of 25 mM Ala-Ala-Tyr-Ala-Ala in 25 mM Tris, 11 mM MgCl2, 50 mM KCl, 9:1H2O:D2O, pH 7.1 at 278° K. The mixing time of the phase-sensitive NOESY was 330 ms. Each FID had 184 scans. The amount of data from t1×t2=512×8192 points covered a spectral range of 5501 Hz×5482 Hz. The correction of the base line was carried out by adjustment with a polynom of fifth order in the F2 dimension. […] The experiment was carried out under identical conditions as described above. In addition, 20 μM DnaK was contained in the measuring solution.
In a further analysis of the method of the two-dimensional NOESY experiment illustrated in Example 8, the cross signals can be quantified by means of common mathematical techniques.

APIase activity of DnaK = target: T1, APIase activity of DnaK (Escherichia coli, UniProt P0A6Y8); assay: Inhibition of the APIase activity of DnaK in the spectrophotometric Ala-Leu activity test; type: biochemical
T1 construct: purchased SIGMA-ALDRICH CHEMIE GmbH, Germany
T1 sequence (P0A6Y8 whole entry): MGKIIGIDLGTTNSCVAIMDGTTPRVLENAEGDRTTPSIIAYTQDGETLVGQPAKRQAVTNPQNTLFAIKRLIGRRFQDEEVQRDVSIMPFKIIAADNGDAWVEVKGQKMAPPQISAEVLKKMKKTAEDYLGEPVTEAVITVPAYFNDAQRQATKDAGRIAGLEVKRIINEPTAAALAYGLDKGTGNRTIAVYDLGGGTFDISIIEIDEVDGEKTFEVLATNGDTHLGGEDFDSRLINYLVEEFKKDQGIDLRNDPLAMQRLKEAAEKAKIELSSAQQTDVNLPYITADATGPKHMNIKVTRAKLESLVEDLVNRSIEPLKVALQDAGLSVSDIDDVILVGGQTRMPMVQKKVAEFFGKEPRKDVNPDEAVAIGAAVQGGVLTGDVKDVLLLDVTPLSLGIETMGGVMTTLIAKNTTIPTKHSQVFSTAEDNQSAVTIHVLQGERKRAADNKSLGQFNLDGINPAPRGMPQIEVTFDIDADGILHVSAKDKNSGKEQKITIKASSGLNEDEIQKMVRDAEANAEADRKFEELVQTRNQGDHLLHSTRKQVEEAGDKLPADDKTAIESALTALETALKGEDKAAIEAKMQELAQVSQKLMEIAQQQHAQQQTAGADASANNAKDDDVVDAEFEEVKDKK
Description: The peptide bond of the substrate Ala-Leu is to about 99% in the trans conformation at pH 7.4. An increase of the proton concentration of the aqueous Ala-Leu solution to about 100 mM results in a shift of the equilibrium of the conformations to a higher content of the peptide with the cis conformation. […] The isomerisation rate can be measured when the substrate is subjected to a pH modification that has an influence on the cis/trans equilibrium of the substrate and when the rate of the pH modification is higher than the isomerisation rate of the substrate. In this context, the isomerisation rate corresponds to the sum of the individual rates cis to trans and trans to cis of the two conformation isomers of the substrate. In the present example, a so-called Stopped-Flow device from the company Applied Photophysics Ltd. (England) is used. This spectroscopic device makes a rapid mixture of two components and, subsequently, a collection of spectroscopic data, which is rapid and […], possible. Moreover, an accompanying software makes it possible for the rate constants (kobs) to be calculated while assuming a concentration/time law that corresponds to a so-called “first-order time law”. […]

[2] = Stopped-flow spectroscopic test of catalysis of the cis/trans isomerisation of Ala-Leu (APIase activity); type: biochemical
From the text: The peptide bond of the substrate Ala-Leu is to about 99% in the trans conformation at pH 7.4. […] The isomerisation rate can be measured when the substrate is subjected to a pH modification that has an influence on the cis/trans equilibrium of the substrate and when the rate of the pH modification is higher than the isomerisation rate of the substrate. In this context, the isomerisation rate corresponds to the sum of the individual rates cis to trans and trans to cis of the two conformation isomers of the substrate. In the present example, a so-called Stopped-Flow device from the company Applied Photophysics Ltd. (England) is used. This spectroscopic device makes a rapid mixture of two components and, subsequently, a collection of spectroscopic data, which is rapid and time-independent, possible. Moreover, an accompanying software makes it possible for the rate constants (kobs) to be calculated while assuming a concentration/time law that corresponds to a so-called “first-order time law”. For the detection of the catalysis, the following assay was selected: • Stock solution Ala-Leu (Bachem, Switzerland) 10 mM dissolved in Aqua dest. with pH 2.0, adjusted by means of HCl • Buffer solution: 12.5 mM Tris, 50 mM KCl, 11 mM MgCl2 with HCl adjusted to pH 8.8 DnaK (SIGMA-ALDRICH CHEMIE GmbH, Germany), or produced in a molecular biological way
After mixing the components in the Stopped-Flow device, the reaction solution had the following concentrations: 1.66 mM Ala-Leu, 10.4 mM Tris, 41.6 mM KCl, 9.2 mM MgCl2. The pH was 7.6. All the solutions were kept constant at a temperature of 25° C.
The thickness of the coating of the silica cuvets was 2 mm, the measuring wave length was 220 nm.
The following solutions were used: • Buffer solution: 12.5 mM Tris, 50 mM KCl, 11 mM MgCl2. • Substrate solution: 20 mM Ala-Leu, dissolved in Aqua dest. at pH 2.0. • DnaK stock solution: 20 μM in buffer solution a
The pH of the solution in the cuvet was 7.3 each. The error lines indicated result from three independent measurements for the determination of the rate constant kobs with a DnaK concentration.
In order to establish whether Cyp18 catalyses the cis/trans isomerisation of the dipeptide Ala-Leu, the isomerisation rate was analysed in the presence of up to 8.4 μM Cyp18: • Human Cyp18 was either bought (SIGMA-ALDRICH CHEMIE GmbH, Germany) or produced as recombinant enzyme (E. coli cultures). The cyclophilin concentration of the cyclophilin stock solution of 1.14 mM was determined by means of titration against the cyclophilin inhibitor cyclosporin A (SIGMA-ALDRICH CHEMIE GmbH, Germany). The substrate Ala-Leu (BACHEM, Switzerland) used was produced as 10 mM stock solution in water with a pH of 2.0. The buffer solution used contained a mixture of the following chemicals: 12 mM Tris, 50 mM KCl, 11 mM MgCI2 and was adjusted with HCl to a pH of 8.8. The measurement of the isomerisation rate of the substrate took place with the Stopped-Flow-Photometer (Applied Photophysics Ltd., England) at 25°C. with 228 nm using 1 cm quartz cuvets. By adding the substrate to the mixture of buffer and Cyp18, solutions were produced in the cuvet with Cyp18 concentrations of 0, 208, 416, 625, 833 and 8,330 nM and 1.66 mM Ala-Leu each with a pH of 7.9.

RNAse T1 P39A = assay: Foldback of RNAse T1 P39A catalysed by APIase; type: biochemical; settings: 1 μM DnaK, 15° C., pH 8; without APIase 6.67×10^−4
Description: as §1, §2

[3] = DnaK 250 and 1,000 nM, 10° C., pH 7.8
Description: The details of Example 5 are described as follows: • Measuring device: Spectrophotometer Diodenarray HP8452A (Hewlett Packard, USA) • Substrate: Suc-Ala-Phe-Pro-Phe-NHNp (SEQ ID NO:2) (BACHEM, Switzerland) • Protease: Chymotrypsin (Merck, Germany) • Measure temperature: 10° C. • Buffer: 35 mM Hepes, pH 7.8 • Protease solution for use: 5 mg protease per ml buffer • Substrate solution for use: 35 mg substrate dissolved in 1 ml DMSO • DnaK solution for use: 30 μM in buffer • Cuvet: 1 ml quartz cuvet, thickness of layer 1 cm • Measuring wave length: 390 nm
Process: After attemperating a mixture of substrate, DnaK and buffer, the reaction is started by rapid addition and homogenous distribution of the protease solution for use. In this way, a chymotrypsin concentration of 0.83 mg/ml is achieved in the cuvet. By means of the substrate amount contained in the cuvet, a final extinction of about 0.43 is accomplished after complete turnover of the substrate. The concentrations of DnaK contained in the cuvet were 0.250 and 1,000 nM.

DnaK, sequence (P0A6Y8 whole entry): as above

CCCCCCCCCCCC(=O)NC(Cc1c[nH]c2ccccc12)C(=O)O (stereo not shown) [28/C8]
IC50 (DnaK): 55.3 µM

FKBP12: peptidyl-prolyl cis/trans isomerase from SIGMA-ALDRICH
catalysis of the cis/trans isomerisation of the Ala-Tyr and Tyr-Ala peptide bonds (in words) ([1]; 20 μM addition): neither catalyse
relative intensity of the cross signal of the peptide bond Ala-Tyr ([1]; 20 μM addition): 3.94 ± 0.87
relative intensity of the cross signal of the peptide bond Tyr-Ala ([1]; 20 μM addition): 2.68 ± 0.75

CCCCCCCC/C=C\CCCCCCCC(=O)NC(CC(C)C)C(=O)NCCc1ccccc1 (stereo not shown) [30/B4]
IC50 (DnaK): 7.5 µM

CSCC[C@H](NC(=O)[C@H](CC(C)C)NC(=O)CNC(=O)[C@H](Cc1ccccc1)NC(=O)[C@H](Cc1ccccc1)NC(=O)[C@H](CCC(N)=O)NC(=O)[C@H](CCC(N)=O)NC(=O)[C@@H]1CCCN1C(=O)[C@H](CCCCN)NC(=O)[C@@H]1CCCN1C(=O)[C@@H](N)CCCN=C(N)N)C(N)=O [substance P]
IC50 (APIase activity of DnaK): 76 ± 16 µM

CCCCCCCCCCCCCCCC(=O)NCc1ccc(C(=O)NCC2CCC(C(=O)O)CC2)cc1 (stereo not shown) [37/B11]
IC50 (DnaK): 5.9 µM

DnaK: protein with APIase activity, bought from SIGMA-ALDRICH or produced in a molecular biological way
rate constant (kobs) of the cis/trans isomerisation of Ala-Leu ([2]; 624 nM DnaK, 1.66 mM Ala-Leu, pH 7.6, 25° C., non-catalysed reaction 0.36 s^−1): 0.55 s⁻¹
time until the conformation equilibrium occurs ([2]; 624 nM DnaK, without DnaK about 20 seconds): less than 10 seconds
change of the relative intensity of the Ala-Tyr cross signal (in words) ([1]; 20 μM DnaK): nearly doubles
influence on the cis/trans isomerisation rate of the Tyr-Ala peptide bond (in words) ([1]; 20 μM DnaK): no influence
relative intensity of the cross signal of the peptide bond Ala-Tyr ([1]; 20 μM addition): 6.37 ± 0.57
relative intensity of the cross signal of the peptide bond Tyr-Ala ([1]; 20 μM addition): 3.39 ± 0.45
rate constant of the foldback of RNAse T1 P39A (RNAse T1 P39A): 9.77×10^−4 -s
influence on the peptidyl-prolyl cis/trans isomerisation rate of the substrate (in words) [3]: did not show a visible influence on the cis/trans isomerisation rate of the substrate

bovine serum albumin: purified reference protein (SIGMA-ALDRICH)
catalysis of the cis/trans isomerisation of the dipeptide Ala-Leu (in words) ([2]; 1 μM purified protein instead of Cyp18): not able to catalyse the cis/trans isomerisation of the dipeptide

CCCCCCCCCCCC(=O)NC(CC(=O)O)C(=O)O (stereo not shown) [28/B7]
IC50 (DnaK): 177 µM

Cyp18: human peptidyl-prolyl cis/trans isomerase of the cyclophilin family, EC 5.2.1.8, P05092
rate constants kobs of the isomerisation of Ala-Leu ([2]; Cyp18 0 to 8,330 nM, independent of concentration, 1.66 mM Ala-Leu, pH 7.9, 25° C., 228 nm): about 0.43±0.03 s^−1
acceleration of the cis to trans reaction of Ala-Leu (in words) ([2]; up to 8.4 μM Cyp18, observation period 20 seconds): no acceleration of the cis to trans reaction could be observed
